In patent US7049490B2, “Gibberellin 3β-hydroxylase genes of rice and uses thereof” (priority 1999, dated 2006):
Entries after “also recorded” stand apart in the source; their conditions may differ.

How the values were obtained:
Os3β-1 fusion protein = target: T1, Os3β-1 fusion protein (Oryza sativa subsp. japonica, UniProt Q6AT12, A27T/D23H/DEL15-17/DUP228-228); assay: Enzymatic activity assay of recombinant Os3β-1 fusion protein with gibberellin substrates, products identified by GC-MS; assay type: biochemical, rice (Oryza sativa); details: E. coli supernatant with Os3β-1 fusion protein, cofactors ascorbate, ferrous iron, 2-ketoglutarate
T1 construct: a full-length cDNA is synthesized by RT-PCR using primers provided with restriction enzyme sites and subcloned into multi-cloning sites of the pMAL-c2 expression vector; made in house; host or cells: E. coli JM109
T1 sequence (Q6AT12 other isoform, or with tags, fused parts or gaps DEL15-17/D23H/A27T/DUP228-228): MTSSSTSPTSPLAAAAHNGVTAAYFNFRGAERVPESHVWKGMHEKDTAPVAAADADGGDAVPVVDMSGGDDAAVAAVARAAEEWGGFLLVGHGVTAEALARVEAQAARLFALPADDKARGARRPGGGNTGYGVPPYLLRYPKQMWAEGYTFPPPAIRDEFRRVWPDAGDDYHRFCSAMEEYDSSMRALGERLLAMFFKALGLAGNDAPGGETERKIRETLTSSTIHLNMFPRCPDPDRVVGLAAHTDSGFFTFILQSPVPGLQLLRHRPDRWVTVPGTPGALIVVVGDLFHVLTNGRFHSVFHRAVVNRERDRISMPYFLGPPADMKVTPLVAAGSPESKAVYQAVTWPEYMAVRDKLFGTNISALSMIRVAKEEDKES
Protocol: (§1) cDNAs for the predicted protein-coding regions of the Os3β-1 and Os3β-2 genes were each inserted into the pMAL-c2 expression vector (New England Biolabs, Beverly, Mass.) in the sense orientation to obtain a fusion translation product. The constructs thus obtained, pMAL-Os3β-1 and pMAL-Os3β-2, were expressed in E. coli strain JM109. Bacterial cells were cultured by shaking in 2×YT medium containing 100 mg/L ampicillin at 37° C. overnight. Then, the culture was diluted 100-fold with a fresh 2×YT medium containing 100 mg/L ampicillin, and further cultured with shaking at 30° C. Four hours later, IPTG was added to the culture to a final concentration of 1 mM, and the mixture was incubated with shaking at 17° C. for further 18 h. After the completion of culturing, the bacterial cells were collected, washed with a washing buffer (containing 50 mM Tris-HCl (pH 8.0), 10% (w/v) glycerol, and 2 mM DTT), suspended in the washing buffer containing lysozyme (1 mg/ml), and allowed to stand for 30 min on ice.
(§2) The cell lysate thus obtained was sonicated, centrifuged, and the supernatant was subjected to SDS-PAGE to confirm the expression of the fusion protein. For the assay of enzymatic activity of the Os3β-1 fusion protein, the supernatant was incubated with various gibberellins and cofactors (ascorbate, ferrous iron, and 2-ketoglutarate). For the activity assay of the Os3β-2 fusion protein, the supernatant was purified on a column of amylose resin according to the method described in the manual, and the purified protein thus obtained was similarly incubated as described above. Metabolized gibberellins were identified using GC-MS.

Os3β-2 fusion protein = target: T2, Os3β-2 fusion protein (Oryza sativa subsp. japonica, UniProt Q9FU53, G53R); assay: Enzymatic activity assay of purified recombinant Os3β-2 fusion protein with gibberellin substrates, products identified by GC-MS; assay type: biochemical, rice (Oryza sativa); details: amylose-resin purified Os3β-2 fusion protein, cofactors ascorbate, ferrous iron, 2-ketoglutarate
T2 construct: a full-length cDNA is synthesized by RT-PCR using primers provided with restriction enzyme sites and subcloned into multi-cloning sites of the pMAL-c2 expression vector; made in house; host or cells: E. coli JM109
T2 sequence (Q9FU53 whole entry G53R, the tested form may be a part): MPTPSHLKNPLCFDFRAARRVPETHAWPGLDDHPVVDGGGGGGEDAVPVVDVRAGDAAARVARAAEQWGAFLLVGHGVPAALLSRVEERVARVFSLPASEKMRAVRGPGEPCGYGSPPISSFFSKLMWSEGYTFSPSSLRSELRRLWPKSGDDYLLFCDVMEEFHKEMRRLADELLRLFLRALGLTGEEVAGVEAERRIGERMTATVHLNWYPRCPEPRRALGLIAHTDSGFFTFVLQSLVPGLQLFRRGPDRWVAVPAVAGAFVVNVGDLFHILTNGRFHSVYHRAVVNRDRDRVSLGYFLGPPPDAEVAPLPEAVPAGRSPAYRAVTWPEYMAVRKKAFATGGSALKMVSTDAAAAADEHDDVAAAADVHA
Protocol: as §1, §2

Compound	Metabolized gibberellins (reaction products) from the substrate (Os3β-1 fusion protein)	Metabolized gibberellins (reaction products) from the substrate (Os3β-2 fusion protein)
C=C1C[C@]23C[C@@]1(O)CC[C@H]2[C@@]12CC=C[C@@](C)(C(=O)O1)[C@H]2[C@@H]3C(=O)O [GA5]	only the corresponding 3β-hydroxylated gibberellins (GA3 and GA88) were obtained; also recorded: produced the corresponding 3β-hydroxylated gibberellins, GA3 and GA88, respectively	produced the corresponding 3β-hydroxylated gibberellins (GA3, GA4, GA1, and GA38); also recorded: production of the corresponding 3β-hydroxylated gibberellins, GA3, GA4, GA1, and GA38, respectively
C=C1C[C@]23C[C@H]1CC[C@H]2[C@@]12CCC[C@@](C)(C(=O)O1)[C@H]2[C@@H]3C(=O)O [GA9]	synthesis of GA4 (3β-hydroxylation), GA7 (2,3-unsaturation and 3β-hydroxylation), and GA34 (2β-hydroxylation) were confirmed; also recorded: catalyzed the production of GA4 (3β-hydroxylation), GA7 (2,3-unsaturation and 3β-hydroxylation), and GA34 (2β-hydroxylation)	produced the corresponding 3β-hydroxylated gibberellins (GA3, GA4, GA1, and GA38); also recorded: production of the corresponding 3β-hydroxylated gibberellins, GA3, GA4, GA1, and GA38, respectively
C=C1C[C@]23C[C@@]1(O)CC[C@H]2[C@@]12CCC[C@@](C)(C(=O)O1)[C@H]2[C@@H]3C(=O)O [GA20]	–	produced the corresponding 3β-hydroxylated gibberellins (GA3, GA4, GA1, and GA38); also recorded: production of the corresponding 3β-hydroxylated gibberellins, GA3, GA4, GA1, and GA38, respectively
C=C1C[C@]23C[C@@]1(O)CC[C@H]2[C@@]12CCC[C@@](C)(C(=O)OC1)[C@H]2[C@@H]3C(=O)O [GA44]	only the corresponding 3β-hydroxylated gibberellins (GA3 and GA88) were obtained; also recorded: produced the corresponding 3β-hydroxylated gibberellins, GA3 and GA88, respectively	produced the corresponding 3β-hydroxylated gibberellins (GA3, GA4, GA1, and GA38); also recorded: production of the corresponding 3β-hydroxylated gibberellins, GA3, GA4, GA1, and GA38, respectively
